# Results taken from patent publication US20240226226A1, “KAPPA-OPIOID RECEPTOR AGONIST IMPLANTS FOR TREATMENT OF PRURITUS” (Titan Pharmaceuticals, Inc., priority 2021, published 2024).
# Columns and labels:
# [1] = Blood plasma levels from Compound A implants in rats; type: in vivo; conditions: one implant per rat, 17.5 mg Compound A
# Protocol: Ten coextruded implants were prepared having a core comprising 50% of Compound A (as a salt) and 50% ethylene vinyl acetate, and a shell comprising 3% Compound A and 97% ethylene vinyl acetate. The implants measured 26 mm length×1.5 mm diameter, weighed 48 mg, and contained 17.5 mg Compound A. After extrusion, the implants were washed, dried, packaged and sterilized by E-beam irradiation at 25 KGy.
# The implants were implanted into rats (one implant per rat), and blood plasma levels were measured. After an initial peak from drug on the implant surface, the rat plasma levels were sustained within a range of about 1.4 to about 4 ng/ml for about 2,000 hours (about 83 days).
# [2] = Mouse plasma concentration from EVA mouse prototype implants versus subcutaneous acute injection; type: in vivo; conditions: male C57BL/6 mice, one prototype implant per mouse, compared with acute 0.3 mg/kg subcutaneous injection
# Protocol: Male C57BL/6 mice were sampled for pharmacokinetic analysis following subcutaneous acute injection with Compound A in saline (0.3 mg/kg drug was administered, using an injection volume of 10 mL/kg), or following implantation with one Compound A implant in each mouse. The implants used were as described in Example 2.
# [3] = system: mice challenged with the pruritogen 5′-GNTI; test: Scratching events in mice after 5′-GNTI challenge over an 84-day period, Compound A-containing implants; type: in vivo, mouse; conditions: male C57BL/6 mice, one implant (26×2.6 mm, 60 mg Compound A), 5′GNTI 0.1 mg/kg s.c. on Days 28, 56 and 84, initial 30 minutes of observation
# Protocol: Male C57BL/6 mice (8-14 wks old, N=7-8) were each implanted with one Compound A-containing implant (26×2.6 mm, 50% loading, 60 mg Compound A/implant). Controls were untreated mice or mice implanted with placebo (EVA-only) implants (N=5-7). On Days 28, 56 and 84 post-implantation, the mice were transferred to behavioral rooms during the light cycle, at least 2 hours prior to challenge with the pruritogen 5′-GNTI to minimize stress effects on grooming and movement. 5′GNTI (0.1 mg/kg) was subcutaneously injected just caudal to the head/neck, and the mice were immediately placed in an observation chamber (25×25 cm) with plexiglas walls and light-colored melamine flooring and video recorded from above for up to 90 minutes after pruritogen challenge, and then removed and placed back into their home cages in the housing colony. The video recordings were subsequently analyzed for the quantity of scratching behavior, classified as either a forepaw scratching bout behind the ears, or hind paw scratching bout of the flank/back of the animal, over the initial 30 minutes of observation.
# (D28C=control mice at day 28, D28A=mice with Compound A implants at day 28, D56C=control mice at day 56, D56A=mice with Compound A implants at day 56, D84C=control mice at day 84, D84A=mice with Compound A implants at day 84).
# [4] = system: mice challenged with 5′-guanidinonaltrindole (5′GNTI); test: Mouse itch model, 5′GNTI challenge, mouse prototype EVA implants; type: in vivo; conditions: male C57BL/6 mice, 1 prototype implant (10 mg Compound A) per mouse
# Protocol: Compound A implants were formulated in ethylene-vinyl acetate (EVA) matrices for testing in male C57BL/6 mice. Because of the small size of the mouse, test implant prototypes (25 mm×1.5 mm) containing a limited quantity of the drug (10 mg) were used for this mouse model study. […] After extrusion, the implant prototypes were washed, dried, packaged and sterilized by E-beam irradiation at 25 KGy.
# Following the implantation of one Compound A implant in each mouse, the treated mice with drug-containing implants (N=5) and untreated control mice with placebo implants or sham surgery (N=7) were challenged with 5′-guanidinonaltrindole (5′GNTI) at Days 1, 14 and 28 post-implantation. Scratch events were monitored.
smiles,measurement,setting,value
CCCC[C@@H](NC(=O)[C@@H](Cc1ccccc1)NC(=O)[C@H](N)Cc1ccccc1)C(=O)N[C@H](CCCCN(C)C)C(=O)NCc1ccncc1 [Compound A],time for which plasma levels were sustained,[1],"2000 hours and about 2,000 hours"
same,plasma concentrations of Compound A over the first 14 days post-implantation,[2],well above the levels estimated for therapeutic anti-pruritus activity
same,scratch events versus control mice,[3],reduced scratch events
same,scratching behavior at day 28 post-implantation,[4]; 5′GNTI challenge,returning to control levels
same,sustained itch suppression post-implantation,"[4]; 5′GNTI challenge at Days 1, 14 and 28",up to 14 days
